Experimental findings from patent US7179898B1, “Human vanilloid receptor-like receptor” (Merck & Co., Inc., priority 1998, dated 2007) are described below.

The target of assay [1] is T1, human vanilloid receptor-like receptor (VR-L) (Homo sapiens, UniProt Q9Y5S1).
T1 sequence (Q9Y5S1 1-764): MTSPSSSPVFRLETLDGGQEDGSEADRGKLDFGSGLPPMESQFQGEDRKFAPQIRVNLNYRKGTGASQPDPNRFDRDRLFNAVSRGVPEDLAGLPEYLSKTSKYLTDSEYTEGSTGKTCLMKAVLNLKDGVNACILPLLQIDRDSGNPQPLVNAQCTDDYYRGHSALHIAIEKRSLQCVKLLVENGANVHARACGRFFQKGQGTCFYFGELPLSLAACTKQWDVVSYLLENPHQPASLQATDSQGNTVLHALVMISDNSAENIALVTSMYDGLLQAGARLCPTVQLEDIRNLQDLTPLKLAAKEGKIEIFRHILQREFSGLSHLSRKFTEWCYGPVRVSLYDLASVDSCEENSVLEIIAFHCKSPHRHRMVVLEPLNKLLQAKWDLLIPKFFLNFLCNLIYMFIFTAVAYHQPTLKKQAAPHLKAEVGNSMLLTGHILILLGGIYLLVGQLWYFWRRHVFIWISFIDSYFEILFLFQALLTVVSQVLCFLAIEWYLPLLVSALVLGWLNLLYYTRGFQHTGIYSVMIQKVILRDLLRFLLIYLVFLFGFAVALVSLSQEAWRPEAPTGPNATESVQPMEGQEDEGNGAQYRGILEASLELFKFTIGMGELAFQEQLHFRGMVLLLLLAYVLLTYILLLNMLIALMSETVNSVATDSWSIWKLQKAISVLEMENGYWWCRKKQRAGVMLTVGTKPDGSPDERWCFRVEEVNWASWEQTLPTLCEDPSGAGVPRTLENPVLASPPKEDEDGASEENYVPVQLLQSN
Kind of assay: Whole-cell patch clamp of HEK 293 cells transiently transfected with vr-l cDNA. Set-up: identified as together containing the entire coding region of the VR-L gene; expressed in transfected cells; host or cells: HEK 293 cells, transient transfection. The following applies: 1 μM capsaicin by fast perfusion; HEK 293 cells expressing human vr-l cDNA, -60 mV. It is filed as cell-based. The source says: A glass coverslip containing a monolayer of human embryonic kidney (HEK) 293 cells transiently transfected with the vr-l cDNA was placed in a perspex chamber mounted on the stage of a Nikon Diaphot inverted phase-contrast microscope and continuously perfused with calcium-free artificial cerebrospinal fluid (aCSF, see below). Fire-polished patch pipettes were pulled on program 10 of a WZ, DMZ-Universal puller using conventional 120TF-10 electrode-glass. Pipette tip diameter was generally 1.5–2.5 μM, resistances were approximately 4MΩ. The intracellular pipette solution used is detailed below. High resistance (>10 GΩ) seals were formed by advancing the pipette onto the cell and exerting gentle suction to break through the membrane. The cells were voltage-clamped at −60 mV, using an Axon Axopatch 2 amplifier. Drugs or heated aCSF were applied to the cell under study by fast perfusion using a large internal diameter (50–100 μM) triple-barrel pipette assembly. Drug responses were obtained by rapidly positioning the perfusion pipette to completely envelop the cell in drug solution. This was achieved via a Biologic rapid solution changer which pivots the barrels into the desired position. Fast washout was obtained by re-positioning the washout barrel in line with the cell. [table] [table]

Assay [2] deals with T1, human vanilloid receptor-like receptor (VR-L). Kind of assay: Xenopus oocyte expression, two-electrode voltage clamp at -70 mV. Format: cell-based. The settings on record: 1 μM capsaicin in the perfusate; Xenopus oocytes expressing human vr-l cDNA. The procedure: Adult female Xenopus laevis were anaesthetized by immersion in a 0.4% solution of 3-aminobenzoic acid ethylester for 30–45 mins (or until unresponsive). Ovary tissue was removed via a small abdominal incision and Stage V and VI oocytes were isolated with fine forceps. After mild collagenase treatment to remove follicle cells (Type 1A, 0.5 mg mL^−1, for 8 mins), the oocyte nuclei were directly injected with 10–20 nl of injection buffer (88 mM NaCl, 1 mM KCl, 15 mM HEPES, at pH 7, filtered through nitrocellulose) or sterile water containing vr-l cDNA engineered into the expression vector pcDNA3.1Zeo. Following incubation for 48 hrs, oocytes were placed in a 50 μL bath and perfused at 4–6 mL min^−1 with modified Barth's medium (MBS) consisting of 88 mM NaCl, 1 mM KCl, 10 mM HEPES, 0.82 mM MgSO4, 0.33 mM Ca(NO3)2, 0.91 mM CaCl2, 2.4 mM NaHCO3, at pH 7.5. Cells were impaled with two 1–3 MΩ electrodes containing 2 M KCl and voltage clamped between at −70 mV. Drugs were applied in the perfusate and heat was applied by bath applying preheated MBS.

`COc1cc(CNC(=O)CCCC/C=C/C(C)C)ccc1O` [capsaicin]: the “response (inward current) to application of drug” value in assay [1] and in assay [2] was “No responses” throughout.
